IC50 data for 37 compounds are collected here from patent publication US9856216B2, “Compounds as TNIK, IKKε and TBK1 inhibitors and pharmaceutical composition comprising same” (GREEN CROSS CORPORATION, priority 2015, dated 2018).

Structures can show the parent of a compound that is named as a salt.

In this experiment the target is T1, TNIK (Homo sapiens, UniProt Q9UKE5).
T1 construct: purchased Promega V4158
In words: ADP-Glo Kinase Assay, inhibition activity on TNIK. The experiment is classed as biochemical. The note with it: read-out: TNIK. The protocol: The inhibition activities on TNIK, IKKε and TBK1 were measured by a luminometer, TNIK/IKKε/TBK1 Kinase Enzyme System (Promega, Ca# V4158; Invitrogen, PR8031B, Promega, Ca# V3991) and ADP-Glo Kinase Assay using ADP-Glo™ Kinase Analysis Kit (Promega, Ca# V9101) and a kinase reaction buffer [40 mM Tris(pH 7.5), 20 mM MgCl2, 0.1 mg/mL BSA] in accordance with the manufacturer's protocol.

T1 sequence (Q9UKE5 1-367 limits assumed): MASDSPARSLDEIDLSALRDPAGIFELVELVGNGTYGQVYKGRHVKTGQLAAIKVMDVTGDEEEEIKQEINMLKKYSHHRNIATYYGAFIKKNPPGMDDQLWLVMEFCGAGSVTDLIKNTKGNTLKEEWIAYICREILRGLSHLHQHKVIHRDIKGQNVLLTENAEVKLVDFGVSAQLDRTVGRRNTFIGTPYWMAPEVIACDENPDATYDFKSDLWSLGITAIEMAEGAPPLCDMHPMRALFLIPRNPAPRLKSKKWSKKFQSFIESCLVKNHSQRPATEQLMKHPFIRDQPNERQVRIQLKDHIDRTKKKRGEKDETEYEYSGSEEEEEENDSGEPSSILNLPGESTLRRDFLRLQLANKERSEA

`COc1ccccc1-c1ccc(NC(=O)c2ccc(NCCCN3CCN(C)CC3)cc2)c2c1CNC2=O` [Example 330, N-(7-(2-methoxyphenyl)-3-oxoisoindolin-4-yl)-4-((3-(4-methylpiperazin-1-yl)propyl)amino)benzamide]: the IC50 was determined as 510 nM.
As for `COCCCNc1ccc(C(=O)Nc2ccc(-c3ccccc3)c3c2C(=O)NC3)cc1` [Example 331, 4-((3-Methoxypropyl)amino)-N-(3-oxo-7-phenylisoindolin-4-yl) benzamide], the IC50 was determined as 790 nM.
Turning to `COCCCNc1ccc(C(=O)Nc2ccc(-c3ccccc3OC)c3c2C(=O)NC3)cc1` [Example 332, N-(7-(2-methoxyphenyl)-3-oxoisoindolin-4-yl)-4-((3-methoxypropyl)amino)benzamide], the IC50 was 510 nM.
`O=C(Nc1ccc(-c2ccccc2)c2c1C(=O)NC2)c1ccc(NCc2cccs2)cc1` [Example 333, N-(3-oxo-7-phenylisoindolin-4-yl)-4-((thiophen-2-ylmethyl)amino)benzamide]: the IC50 amounted to 1600 nM.
The value for `COc1ccccc1-c1ccc(NC(=O)c2ccc(NCc3cccs3)cc2)c2c1CNC2=O` [Example 334, N-(7-(2-methoxyphenyl)-3-oxoisoindolin-4-yl)-4-((thiophen-2-ylmethyl)amino)benzamide] was 410 nM; that for `CN(C)CCCNc1ccc(C(=O)Nc2ccc(-c3ccco3)c3c2C(=O)NC3)cc1` [Example 335, 4-((3-(Dimethylamino)propyl)amino)-N-(7-(furan-2-yl)-3-oxoisoindolin-4-yl)benzamide] was 430 nM; that for `COCCCNc1ccc(C(=O)Nc2ccc(-c3ccco3)c3c2C(=O)NC3)cc1` [Example 336, N-(7-(furan-2-yl)-3-oxoisoindolin-4-yl)-4-((3-methoxypropyl)amino)benzamide] was 980 nM.
As to `O=C(Nc1ccc(-c2ccco2)c2c1C(=O)NC2)c1ccc(NCCCN2CCOCC2)cc1` [Example 337, N-(7-(furan-2-yl)-3-oxoisoindolin-4-yl)-4-((3-morpholinopropyl)amino)benzamide], the IC50 was determined as 560 nM.
The figure for `O=C(Nc1ccc(-c2ccco2)c2c1C(=O)NC2)c1ccc(NCCCN2CCCCC2)cc1` [Example 338, N-(7-(furan-2-yl)-3-oxoisoindolin-4-yl)-4-((3-(piperidin-1-yl)propyl)amino)benzamide] is 370 nM; for `O=C(Nc1ccc(-c2ccco2)c2c1C(=O)NC2)c1ccc(NCCCN2CCCC2)cc1` [Example 339, N-(7-(furan-2-yl)-3-oxoisoindolin-4-yl)-4-((3-(pyrrolidin-1-yl)propyl)amino)benzamide] it is 310 nM; for `NC1CCN(c2ccc(C(=O)Nc3ccc(-c4ccccc4)c4c3C(=O)NC4)cc2)CC1` [Example 340, 4-(4-Aminopiperidin-1-yl)-N-(3-oxo-7-phenylisoindolin-4-yl) benzamide] it is 680 nM.
The figure for `CN(C)CCNc1ccc(C(=O)Nc2ccc(-c3cccc4ncoc34)c3c2C(=O)NC3)cc1` [Example 341, N-(7-(benzo[d]oxazol-7-yl)-3-oxoisoindolin-4-yl)-4-((2-(dimethylamino)ethyl)amino)benzamide] is 38 nM.
For the compound `O=C(Nc1ccc(-c2cccc3ncoc23)c2c1C(=O)NC2)c1ccc(NCCN2CCCCC2)cc1` [Example 342, N-(7-(benzo[d]oxazol-7-yl)-3-oxoisoindolin-4-yl)-4-((2-(piperidin-1-yl)ethyl)amino)benzamide], the IC50 is 43 nM.
The value for `O=C(Nc1ccc(-c2cccc3ncoc23)c2c1C(=O)NC2)c1ccc(NCCCN2CCCCC2)cc1` [Example 343, N-(7-(benzo[d]oxazol-7-yl)-3-oxoisoindolin-4-yl)-4-((3-(piperidin-1-yl)propyl)amino)benzamide] was 42 nM; that for `O=C(Nc1ccc(-c2cccc3ncoc23)c2c1C(=O)NC2)c1ccc(NCCN2CCCCCC2)cc1` [Example 344, 4-((2-(Azepan-1-yl)ethyl)amino)-N-(7-(benzo[d]oxazol-7-yl)-3-oxoisoindolin-4-yl)benzamide] was 61 nM; that for `O=C(Nc1ccc(-c2ccccc2)c2c1C(=O)NC2)c1ccc(OCCN2CCOCC2)cc1` [Example 345, 4-(2-Morpholinoethoxy)-N-(3-oxo-7-phenylisoindolin-4-yl) benzamide] was 1140 nM.
For the compound `O=C(Nc1cccc2c1C(=O)NC2)c1ccc(NCCN2CCCC2)cc1` [Example 346, N-(3-oxoisoindolin-4-yl)-4-((2-(pyrrolidin-1-yl)ethyl)amino) benzamide], the IC50 turned out to be 6170 nM.
As for `COc1cccc(-c2ccc(NC(=O)c3ccc(OCCN4CCOCC4)cc3)c3c2CNC3=O)c1OC` [Example 347, N-(7-(2,3-dimethoxyphenyl)-3-oxoisoindolin-4-yl)-4-(2-morpholinoethoxy)benzamide], the IC50 was found to be 200 nM.
As to `Nc1cccc(-c2ccc(NC(=O)c3ccc(NCCN4CCOCC4)cc3)c3c2CNC3=O)c1O` [Example 348, N-(7-(3-amino-2-hydroxyphenyl)-3-oxoisoindolin-4-yl)-4-((2-morpholinoethyl)amino)benzamide], the IC50 turned out to be 3180 nM.
The value for `COc1ccccc1-c1ccc(NC(=O)c2ccc(NCCN3CCCCCC3)cc2)c2c1CNC2=O` [Example 349, 4-((2-(Azepan-1-yl)ethyl)amino)-N-(7-(2-methoxyphenyl)-3-oxoisoindolin-4-yl)benzamide] was 240 nM; that for `COc1cccc(-c2ccc(NC(=O)c3ccc(NCCN4CCCCCC4)cc3)c3c2CNC3=O)c1OC` [Example 350, 4-((2-(Azepan-1-yl)ethyl)amino)-N-(7-(2,3-dimethoxyphenyl)-3-oxoisoindolin-4-yl)benzamide] was 61 nM; that for `CN(C)CCCNc1ccc(C(=O)Nc2ccc(-c3ccccc3O)c3c2C(=O)NC3)cc1` [Example 351, 4-((3-(Dimethylamino)propyl)amino)-N-(7-(2-hydroxyphenyl)-3-oxoisoindolin-4-yl)benzamide] was 960 nM.
`COc1ccccc1-c1ccc(NC(=O)c2ccc(NCCO)cc2)c2c1CNC2=O` [Example 352, 4-((2-Hydroxyethyl)amino)-N-(7-(2-methoxyphenyl)-3-oxoisoindolin-4-yl)benzamide]: the IC50 came out at 84 nM.
`O=C(Nc1ccc(-c2ccccc2O)c2c1C(=O)NC2)c1ccc(NCCO)cc1` [Example 353, 4-((2-Hydroxyethyl)amino)-N-(7-(2-hydroxyphenyl)-3-oxoisoindolin-4-yl)benzamide]: the IC50 was determined as 370 nM.
`COc1ccccc1-c1ccc(NC(=O)c2ccc(NCCCO)cc2)c2c1CNC2=O` [Example 354]: the IC50 was found to be 220 nM.
As to `O=C(Nc1ccc(-c2ccccc2O)c2c1C(=O)NC2)c1ccc(NCCCO)cc1` [Example 355], the IC50 stood at 590 nM.
Consider `COc1ccccc1-c1ccc(NC(=O)c2ccc(NCCCCO)cc2)c2c1CNC2=O` [Example 356, 4-((4-Hydroxybutyl)amino)-N-(7-(2-methoxyphenyl)-3-oxoisoindolin-4-yl)benzamide], for which the IC50 came out at 250 nM.
The value for `O=C(Nc1ccc(-c2ccccc2O)c2c1C(=O)NC2)c1ccc(NCCCCO)cc1` [Example 357, 4-((4-Hydroxybutyl)amino)-N-(7-(2-hydroxyphenyl)-3-oxoisoindolin-4-yl)benzamide] was 640 nM; that for `CNCCN(C)c1ccc(C(=O)Nc2ccc(-c3ccccc3)c3c2C(=O)NC3)cc1` [Example 358, 4-(Methyl(2-(methylamino)ethyl)amino)-N-(3-oxo-7-phenylisoindolin-4-yl)benzamide] was 1100 nM.
As to `O=C(Nc1ccc(-c2cccc(F)c2F)c2c1C(=O)NC2)c1ccc(NCCN2CCOCC2)cc1` [Example 359, N-(7-(2,3-difluorophenyl)-3-oxoisoindolin-4-yl)-4-((2-morpholinoethyl)amino)benzamide], the IC50 came to 170 nM.
Turning to `O=C(Nc1ccc(-c2ccccc2)c2c1C(=O)NC2)c1ccc(NCCN2CCCCC2)cc1` [Example 360, N-(3-oxo-7-phenylisoindolin-4-yl)-4-((2-(piperidin-1-yl)ethyl)amino)benzamide], the IC50 was found to be 320 nM.
As for `COc1ccccc1-c1ccc(NC(=O)c2ccc(NCCN3CCCCC3)cc2)c2c1CNC2=O` [Example 361, N-(7-(2-methoxyphenyl)-3-oxoisoindolin-4-yl)-4-((2-(piperidin-1-yl)ethyl)amino)benzamide], the IC50 came out at 170 nM.
With `CN(C)CCNc1ccc(C(=O)Nc2ccc(-c3ccccc3)c3c2C(=O)NC3)cc1` [Example 362, 4-((2-(Dimethylamino)ethyl)amino)-N-(3-oxo-7-phenylisoindolin-4-yl)benzamide], the IC50 was 490 nM.
For `O=C(Nc1ccc(-c2ccccc2)c2c1C(=O)NC2)c1ccc(NCCCN2CCCC2)cc1` [Example 363, N-(3-oxo-7-phenylisoindolin-4-yl)-4-((3-(pyrrolidin-1-yl)propyl)amino)benzamide], the IC50 was 330 nM.
The figure for `O=C(Nc1ccc(-c2cccc(F)c2F)c2c1C(=O)NC2)c1ccc(NCCN2CCCC2)cc1` [Example 364, N-(7-(2,3-difluorophenyl)-3-oxoisoindolin-4-yl)-4-((2-(pyrrolidin-1-yl)ethyl)amino)benzamide] is 180 nM; for `O=C(Nc1ccc(-c2cccc(F)c2F)c2c1C(=O)NC2)c1ccc(NCCN2CCCC2)cc1` [Example 365, N-(7-(2,3-difluorophenyl)-3-oxoisoindolin-4-yl)-4-((2-(pyrrolidin-1-yl)ethyl)amino)benzamide hydrochloride] it is 170 nM.
Regarding `O=C(Nc1ccc(-c2cccc(F)c2F)c2c1C(=O)NC2)c1ccc(NCCCN2CCCC2)cc1` [Example 366, N-(7-(2,3-difluorophenyl)-3-oxoisoindolin-4-yl)-4-((3-(pyrrolidin-1-yl)propyl)amino)benzamide hydrochloride], the IC50 is 170 nM.
